Data published in patent publication US9278924B2, “5-nonyloxytryptamine and related intracellular PH acidifiers for the treatment and prevention of cancer” (THE JOHNS HOPKINS UNIVERSITY, priority 2011, dated 2016).
Counter-ions that a name gives are not always drawn. The star is where a group is joined. Cbz = O=C(OCc1ccccc1)*; CH2F = FC*

Tests used:
[1] = target: 5HTR1B serotonin receptor (Homo sapiens, UniProt P28222); conditions: agonist; cited from earlier work
040622 GBM neurospheres [2] = test: Apoptosis/necrosis evaluation with Guava Nexin reagent, 30 minutes; format: cell-based
Procedure: Cells were treated with DMSO (control), the multi caspase inhibitor Z-VAD-FMK (20 μM), 5-NOTO (10 μM) or the latter two in combination. Guava Nexin assay reagent was used to determine Viable (black), apoptotic (yellow), and necrotic/apoptotic (Red) cell fractions.
To test necrotic cell death directly, cells were treated with DMSO (control) or 10 μM 5-NOTO for 30 minutes followed by apoptosis/necrosis evaluation using Guava PCA flow cytometer and Nexin reagent (Millipore). […] Similar results were documented for 020913 and 040821 neurospheres (not shown).

GBM neurospheres 040622 = test: Necrosis by Nexin staining and flow cytometry, 90 minutes; format: cell-based; conditions: 10 μM, DMSO 5%
Procedure: (§1) FIG. 9 depicts induction of necrotic cell death by 5-NOTO. GBM neurospheres 020913 and 040622 and normal neural stem cells immortalized with v-Myc (VNSC) were treated with DMSO (control, black bars) or with 10 μM 5-NOTO (red bars). Cells were treated for 90 minutes and then processed for viability assay using Nexin staining % Necrosis was determined by flow cytometry. […] VNSCs on the other hand were completely resistant to 5-NOTO showing 26% and 25% in DMSO and 5-NOTO treatments, respectively.
as §1, with “Induction” for “FIG. 9 depicts induction”, “Necrotic Cell Death” for “necrotic cell death”, “5-NOTO.” for “5-NOTO (red bars).”

[3] = tested on: normal neural stem cells immortalized with v-Myc (VNSC); test: as above; format: cell-based; conditions: 10 μM, DMSO 26%
Procedure: as §1
as §1, with “Induction” for “FIG. 9 depicts induction”, “Necrotic Cell Death” for “necrotic cell death”, “5-NOTO.” for “5-NOTO (red bars).”

GBM neurospheres 020913 = test: as above; format: cell-based; conditions: 10 μM, DMSO 13%
Procedure: as §1
as §1, with “Induction” for “FIG. 9 depicts induction”, “Necrotic Cell Death” for “necrotic cell death”, “5-NOTO.” for “5-NOTO (red bars).”

[4] = tested on: GBM-derived neurosphere cell lines; test: MTT growth assay; format: cell-based; conditions: 72 h, read-out: inhibition of growth (viable cell mass, MTT)
Procedure: FIG. 2 depicts MTT growth assays for neurospheres treated with 5-NOTO. Cells were plated in 96-multiwell plates and treated with either DM50 (Control •) or 5-NOTO (at 1 uM ▪ and 10 μM ▴). MTT reagent was added to indirectly measure viable cell mass at each time point. Absorbance was measured wt 490 nm using an Epoch Microplate Spectrophotometer (BioTek).
5-NOTO is a Potent Inhibitor of Cancer Cell Growth. To test the hypothesis that as a pH acidifier, 5-NOTO should reduce cell proliferation, we treated three independent GBM-derived neurosphere cell lines with DMSO (control), 1 μM, and 10 μM 5-NOTO for three days. Accumulation of viable cell mass was measured using MTT growth assay (Promega). Absorbance (A490) was measured using an Epoch Microplate Spectrophotometer (Biotek) at the indicated time points.

GBM neurosphere lines = test: cAMP GLO assay of cellular cAMP levels; format: cell-based; conditions: three GBM neurosphere lines
Source text: In this assay cAMP levels are inversely correlated with luminescence (RLU). Cyanopindolol is a Gα antagonist and is required for detection of 5HTR1B activity. Sumatriptan, another 5HTR1B agonist (similar to 5-NOTO), and forskolin {a known Gα agonist) were used as controls.
The Serotonin Receptors 5HTR1B and 5HTR1A are Not the Target Of 5-NOTO Action in GBM. 5-NOTO is not an FDA approved drug but its biological target is known. 5-NOTO is a specific agonist for the 5HTR1B serotonin receptor (400 times more specific for 5HTR1B then for 5HTR1A). 5HTR1B (as well as other 5HTR1 isoforms) are heterotrimeric G-protein coupled receptors which interact with Gα an inhibitor of adenylate cyclase. Therefore, we sought to determine if treatment with 5-NOTO will result in decreased cellular cAMP levels as activation of Gα should inhibit adenylate cydase, the enzyme which catalyzes the conversion of ATP to cAMP. To this end, cells were treated with cyanopindolol, an antagonist of 5HTR1B, which should increase adenylate cyclase activity (if 5HTR1B is functional), and either 5-NOTO or sumatriptan, the latter being similar to 5-NOTO, activating both 5HTR1B and 5HTR1A. […] Importantly, sumatriptan also had no effect on cellular cAMP levels, strengthening the notion that 5HTR1B (and likely 5HTR1A) have very little to no effect on cellular cAMP levels in the GBM models.

020913 neurospheres = test: ATPlite luminescence assay of cellular ATP; format: cell-based; conditions: 1 μM and 10 μM, 1 or 3 hours
Procedure: Cells were incubated for either 1 or 3 hours in the presence of DMSO (control) or 5-NOTO (1 μM and 10 μM), ATP levels were determined using ATPlite Luminescence Assay System (PerkinElmer) according to manufacturer instructions.
5-NOTO Induces Rapid Necrosis in GBM Neurospheres. One of the classical features of necrotic cells is rapid and significant drop in intracellular ATP levels. The effect of 5-NOTO on ATP release was assayed at 1 hr and 3 hr post-treatment as follows. Briefly, 020913 neurospheres were triturated to a single-cell suspension and 20,000 cells were plated per well. Cells were plated in triplicates for vehicle alone, 1 μM 5-NOTO, and 10 μM 5-NOTO. At each time point, 100 μl of ATPlite 1-step reagent (Perkin Elmer) was added to each well and incubated with shaking for 2 minutes. After dark adaptation for 10 minutes, the samples were read using a microplate reader (Perkin Elmer). Readings were averaged and the percent differences in ATP release between treated and vehicle alone were calculated (RLU). This experiment was performed in triplicate with similar results (FIG. 6).

GBM neurospheres [5] = test: Guava ViaCount cell viability, IC50 determination; format: cell-based; conditions: 48 hours, all neurospheres tested; read-out: IC50 (concentration required to kill 50% of the cells)
Procedure: Cells were treated for 48 hours with various concentrations of 5-NOTO and incubated for 48 hours in humidified incubator as which point, Guava Viacount reagent (Millipore) was used to assess the percentage of viable cells remaining in each treatment well. IC50 (concentration of drug required for 50% reduction in cell viability) was calculated using Graphpad 5.0 software package. The respective IC50 is indicated for each neurosphere line.
Determination of cytotoxic effects. We next sought to determine the concentration of 5-NOTO which is required to kill 50% of the cells (e.g. IC50). Cells were plated in 24-well plates at 25,000 cells/well and treated for 48 hours with either DMSO (control) or various concentration of 5-NOTO (FIG. 2). Guava PCA flow cytometry system was used with the Guava Viawunt reagent (Millipore) to determine cell viability. Data was analyzed using GraphPad 5.0 software package. IC50 was calculated using non linear regression.

GBM neurospheres [6] = test: Elimination of viable cells at high 5-NOTO level; format: cell-based; conditions: 48 h, read-out: viable cells eliminated
Procedure: (§2) 5-NOTO Induces Apoptosis in GBM Neurospheres. To ascertain that 5-NOTO induces apoptosis, cells were treated with DMSO (control), 1 μM, and 10 μM 5-NOTO for 24 hours at which point cells were processed for Annexin V apoptosis assay (Millipore), which is a simple and effective method to detect one of the earliest events in apoptosis, the externalization of phosphatidylserine in living cells. […] Higher levels of 5-NOTO (100 μM) eliminated the vast majority of viable cells (80-90%) 48 hours post treatment (Data not shown)).

[7] = tested on: GBM-derived neurosphere line 020913; test: Guava ViaCount viability assay; format: cell-based; conditions: 48 h, read-out: percent viability
Procedure: (§3) Cells were plated in 24-well plates and treated with DMSO or t 10 μM 5-NOTO. 48 hours later, cell viability was determined using Guava PCA flow cytometer with Guava ViaCount reagent.
(§4) We next sought to examine if 5-NOTO is generally cytotoxic or if its cytotoxicity may be specific to some cancer types. To this end, we examined the apoptotic induction in a uveal melanoma cell line, OCM 1. Cells were treated for 48 hours with 10 μM of 5-NOTO followed by Viacount assay. 5-NOTO had no effect on viability of OCM1 as the percentage of viable cells remained greater than 90% (FIG. 8). In contrast, percent viability in 020913 neurospheres treated with 10 μM 5-NOTO was only 10%.

[8] = Guava ViaCount viability assay; format: cell-based; conditions: human, uveal melanoma cell line OCM1, read-out: percentage of viable cells
Procedure: as §3, §4

020913 GBM neurospheres = test: Annexin V apoptosis assay; format: cell-based; conditions: 10 μM, 24 hours; DMSO 10-20%
Procedure: (§5) FIG. 4 depicts apoptosis analysis for GBM neurospheres treated with 5-NOTO for 24 hours. Cells were plated and then treated for 24 hours with DMSO (control), 1 μM and 10 μM 5-NOTO. Cells were then processed for Annexin V assay using the Nexin reagent (Millipore) and % Annexin positive cells was determined using flow cytometry.
as §2

040821 GBM neurospheres = test: Annexin V apoptosis assay; format: cell-based; conditions: 10 μM, 24 hours; DMSO 10-20%
Procedure: as §5, §2

040622 GBM neurospheres [9] = test: Annexin V apoptosis assay; format: cell-based; conditions: 10 μM, 24 hours; DMSO 10-20%
Procedure: as §5, §2

Chain of 5HTR1B serotonin receptor (P28222 whole entry): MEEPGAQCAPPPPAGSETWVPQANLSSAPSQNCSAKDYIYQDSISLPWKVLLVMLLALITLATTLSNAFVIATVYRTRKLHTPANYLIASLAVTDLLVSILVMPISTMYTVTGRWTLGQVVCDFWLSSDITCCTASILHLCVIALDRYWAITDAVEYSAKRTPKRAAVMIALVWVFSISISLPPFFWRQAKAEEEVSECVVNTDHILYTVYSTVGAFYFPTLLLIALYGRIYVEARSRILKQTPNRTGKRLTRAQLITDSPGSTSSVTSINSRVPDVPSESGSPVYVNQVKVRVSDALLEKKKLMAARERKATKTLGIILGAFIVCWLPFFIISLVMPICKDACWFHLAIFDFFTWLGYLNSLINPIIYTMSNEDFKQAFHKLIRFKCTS

Q: What does the source list for `CCCCCCCCCOc1ccc2[nH]cc(CCN)c2c1` [5-NOTO, 5-nonyloxytryptamine oxalate]?
A: specificity for 5HTR1B over 5HTR1A [1]: 400 times; necrotic/dead fraction (040622 GBM neurospheres [2]; 10 μM, 30 minutes, DMSO 15.83%): 54.17%; % necrosis (GBM neurospheres 040622): 65%; % necrosis [3]: 25%; % necrosis (GBM neurospheres 020913): 56%; cytotoxicity at 10 µM [4]: > 90%; effect on cellular cAMP levels (GBM neurosphere lines): not affected; effect on cellular ATP levels (020913 neurospheres): depletes cellular ATP levels in a time and dose dependent fashion; IC50 (GBM neurospheres [5]): ~10 µM; cytotoxicity at 100 µM (GBM neurospheres [6]): 80 to 90%; viability at 10 µM [7]: 10%; viability at 48 h, 10 µM [8]: > 90%; apoptotic cell fraction (Annexin V positive) (020913 GBM neurospheres): > 80%; apoptotic cell fraction (Annexin V positive) (040821 GBM neurospheres): > 70%; apoptotic cell fraction (Annexin V positive) (040622 GBM neurospheres [9]): more than 60%

Q: Which “effect on cellular cAMP levels” value (GBM neurosphere lines) does the source give for `CC(C)(C)NCC(O)COc1cccc2[nH]c(C#N)cc12` (stereo not drawn) [Cyanopindolol, cyanopindolol] here?
A: The value was “not affected”.

Q: With `CNS(=O)(=O)Cc1ccc2[nH]cc(CCN(C)C)c2c1` [sumatriptan] as the molecule, how does the “effect on cellular cAMP levels” value (GBM neurosphere lines) read?
A: Its value is “no effect”.

Q: With “Cbz-Val-Ala-Asp-CH2F [reference compound]” as the molecule, how does the “effect on 5-NOTO-induced necrotic/dead cell fraction” value (040622 GBM neurospheres [2]; pre-treatment with 20 μM Z-VAD-FMK, then 10 μM 5-NOTO) read?
A: Its value is “no effect”.
